≈ marks a conversion by molar mass, not a printed value. Where two headings read alike, the source gives them in different places.
Legend:
[1] = system: SVMP activity of Echis romani venom; conditions: read-out: ERO EC50; E. romani venom; ref not given; cited from earlier work
[2] = system: E. romani venom; conditions: 30 mg/kg single oral dosing; ref not given; cited from earlier work
[3] = system: SVMP activity of Bothrops jararaca venom; conditions: read-out: Inhibition of SVMP enzymatic activity EC50 BJA; B. jararaca venom; mean of n ≥ 3, range in brackets
Description: (§1) Throughout our medicinal chemistry campaign, compounds were evaluated for their ability to inhibit enzymatic SVMP toxin activity in vitro using a previously described fluorescent-based substrate cleavage assay against five medically important viper venoms, namely Echis romani (Roman’s carpet viper, West Africa), Crotalus atrox (Western diamondback rattlesnake, North America), Calloselasma rhodostoma (Malayan pit viper, South East Asia), Bothrops jararaca (jararaca, South America) and Bitis arietans (puff adder, Africa).
(§2) Compounds of interest were stamped onto 384-well plates at a volume of 0.91 μL at a concentration of 1 mM in 100% DMSO (D2650, Sigma-Aldrich). Positive and negative control wells were stamped with 0.91 μL of 100% DMSO. To the test wells and the venom-only positive control wells, 15 μL of venom diluted to 0.066 μg/mL in PBS was added, giving a final amount of 1 μg/well. In the no venom negative control wells, 15 μL of PBS was added. The plates were then sealed, span briefly in a Platefuge (C2000, Benchmark Scientific) and incubated at 37 °C for 25 min to allow venom-inhibitor interaction. […] Dose response plates were conducted identically and the % inhibition values at each dose were used to draw EC50 curves to estimate the EC50 value of each compound tested. All SVMP experiments were repeated independently a minimum of three times.

[4] = system: procoagulant activity of B. jararaca venom; conditions: read-out: Coagulation assay EC50 B. jararaca; 100 ng B. jararaca venom, citrated bovine plasma; mean of n ≥ 3, range in brackets
Description: (§3) This assay consists of preincubating venom (or venom vehicle control) at a species-specific dose with the compound of interest (or compound vehicle control), then adding citrated bovine plasma to the wells and activating the clotting cascade with calcium chloride. […] Compounds of interest were stamped onto 384-well plates at a volume of 0.5 μL and a concentration of 10 mM in 100% DMSO. Positive and negative control wells were stamped with 0.5 μL of 100% DMSO. To the test wells and the venom-only positive control wells, 10 μL of venom diluted to 1 μg/mL (E. romani) or 10 μg/mL (B. jararaca) in PBS was added, giving a final well amount of 10 ng (E. romani) or 100 ng (B. jararaca) per well. In the no venom negative control wells, 10 μL of PBS was added. The plates were then sealed, span briefly in a Platefuge and incubated at 37 °C for 25 min to allow venom-inhibitor interaction. While the plates were incubating, sufficient citrated bovine plasma (S0260, BioWest) to allow 20 μL/well was centrifuged at 3120 RCF for 5 min to remove any residual cellular debris and the supernatant was collected. The 384-well plates were removed from the incubator for 5 min to allow acclimation to room temperature, then 20 μL/well of 20 mM CaCl2 was added and immediately followed by the addition of 20 μL/well of centrifuged citrated bovine plasma, both via a Multidrop Combi reagent dispenser (5840330, Thermo Fisher Scientific). The plates were then read kinetically using an absorbance protocol on a CLARIOStar microplate reader at 595 nm for 60 min. […] Dose response plates were conducted identically and the % inhibition values at each dose were used to draw EC50 curves to estimate the EC50 value of each compound tested. All coagulation experiments were repeated independently a minimum of three times.

[5] = in vitro; conditions: human, microsomes
Description: (§4) The DMPK properties data described in the manuscript were measured via a high-throughput platform by AstraZeneca (United Kingdom).

[6] = system: SVMP activity of Echis romani venom; conditions: read-out: Inhibition of SVMP enzymatic activity EC50 ERO, E. romani venom, mean of n ≥ 3, range in brackets
Description: as §1, §2

[7] = system: SVMP activity of Calloselasma rhodostoma venom; conditions: read-out: Inhibition of SVMP enzymatic activity EC50 CRH; C. rhodostoma venom; mean of n ≥ 3, range in brackets
Description: as §1, §2

[8] = system: procoagulant venom activity (E. romani and B. jararaca); conditions: in words; coagulation assay
Description: as §3

[9] = in vitro; conditions: rat, hepatocytes
Description: as §4

[10] = physchem; conditions: organic solvent / aqueous solvent at pH 7.4, pH 7.4
Description: as §4

[11] = physchem; conditions: aqueous medium at pH 7.4, pH 7.4, aqueous buffer
Description: as §4

[12] = system: human plasma protein
Description: as §4

[13] = system: SVMP activity of Bitis arietans venom; conditions: read-out: Inhibition of SVMP enzymatic activity EC50 BAR; B. arietans venom; mean of n ≥ 3, range in brackets
Description: as §1, §2

[14] = system: SVMP activity of Crotalus atrox venom; conditions: read-out: Inhibition of SVMP enzymatic activity EC50 CAT; C. atrox venom; mean of n ≥ 3, range in brackets
Description: as §1, §2

[15] = system: procoagulant activity of E. romani venom; conditions: read-out: Coagulation assay EC50 E. romani; 10 ng E. romani venom, citrated bovine plasma; mean of n ≥ 3, range in brackets
Description: as §3

[16] = system: E. romani venom
Description: Room conditions were set at 20–24 °C and 45–65% humidity, 12/12 h light cycles. Mice were allowed ad libitum access to Picolab 5R53 food (Lab Diet, USA) and reverse osmosis water and housed with nesting material and environmental enrichment materials.
Mice weighed 22–28 g at the start of study. Five milligram or kilogram morphine was administered subcutaneously as an analgesic 15 min prior to venom administration. […] No criteria for including or excluding animals was applied, and all data points were included in analyses. Animals were monitored for humane end points (loss of righting reflex, seizure, external hemorrhage) for 8 h to encompass the drug exposure time frame, and any animals showing such signs were immediately euthanized by rising concentrations of carbon dioxide. All observations were performed by mixed gender experimenters who were blinded to the drug group allocation. Time of death, number of deaths and number of survivors were recorded, where deaths and times of death represent implementation of humane end point-dictated euthanasia. Kaplan–Meier survival plots were generated using GraphPad Prism 9.0 (GraphPad Software, San Diego, USA).

[17] = system: E. romani P–I and P–III SVMPs; conditions: drug 2 μM, gel
Description: (§5) Evaluation of SVMP toxin activity of human prothrombin and fibrinogen and inhibition by test compounds was performed by SDS-PAGE degradation gel electrophoresis using venom-purified toxins. P–I, P–II and P–III SVMPs were isolated using an adaptation of the method of Howes et al. Whole E. romani venom (15 mg) was initially separated using size exclusion chromatography (SEC) on a 120 mL column of Superdex 75 (Cytiva). The P–II SVMP (22 kDa) was pure and ready to use at this stage. P–I and P–III SVMP containing peaks were separately applied to a 1 mL high resolution hydrophobic interaction chromatography (HIC) column (SOURCE 15PHE, Cytiva). […] The P–I eluted as two peaks of proteins with identical molecular weight (21 kDa) which were combined back together. The P–III-containing fraction from SEC eluted from HIC as multiple peaks of P–III SVMP isoforms, well separated from the earlier eluting L-amino acid oxidase and high molecular weight C-type lectin-like proteins. The proteins in the PIII-containing peaks were pooled back together.
Prothrombin degradation was measured by incubating 2 μg of human prothrombin (Hematologic Technologies INC) in the presence or absence of drug and the P–I, P–II, and P–III SVMPs. […] Briefly, drug or DMSO and 200 ng of purified SVMP isoform were incubated for 30 min at 37 °C in a water bath, after which 2 μg of human prothrombin were added and the samples incubated for another hour at 37 °C. Drug concentrations used were 2 μM for P–I and P–III SVMPs. Samples were then processed for loading onto a 4–20% SDS-PAGE gel (Biorad) and were run under reducing conditions for 45 min at 180 V. The gels were stained with Coomassie Brilliant Blue R250 and degradation profiles were visualized and images captured using a GelDoc (Biorad).

[18] = system: thrombin-antithrombin (TAT) complexes
Description: Blood samples were collected from mice via cardiac puncture immediately following euthanasia. Samples were centrifuged at 1400 × g for 10 min at 4 °C, and the plasma supernatant stored at −80 °C until use. Plasma TAT levels were determined using a sandwich ELISA provided as a commercial kit (Abcam, ab137994). Mouse plasma samples were diluted 1:150 using Diluent M and were run in duplicate alongside a standard curve. Each well received 50 μL diluted plasma and was incubated for 2 h at room temperature to allow for the reaction with the TAT complexes antibodies coated onto the plate. After five washes, 50 μL of biotinylated mouse TAT complexes antibodies were added to the plate and the reaction allowed to proceed for another 2 h. Following another five washes, 50 μL of a streptavidin-peroxidase conjugate were added to the plate and incubated for another 30 min. Next, 50 μL of a chromogenic substrate (3,3′,5,5′-tetramethylbenzidine) was added to the plate and the peroxidase-dependent reaction allowed to proceed until a clear blue color formed in the well. At this point 50 μL of stop solution was added and the absorbance read immediately at 450 and 570 nm. The 570 nm absorbance readings were subtracted from the 450 nm ones, and the levels of TAT complexes (ng/mL) extrapolated based on the standard curve.

[19] = system: E. romani venom; conditions: venom 10 μg/egg, in words
Description: Fertile hens eggs were supplied on day 1 post fertilization from UK supplier MedEggs Ltd. Eggs were immediately placed horizontally to incubate at 37 °C until day 5 of development. Candling was conducted to mark the position of the embryo to guide windowing. Any infertile eggs were removed at this stage. To access the embryos, all fertile eggs were then windowed under laminar flow. In brief, 6–8 mL of albumin was removed using a 23G needle. The area marking the position of the embryo was then covered with medical tape, and a dish of shell removed using sharp dissection scissors. The exposed embryo was then covered using parafilm and the egg returned to the incubator overnight. Surviving embryos were then randomly allocated into groups of n = 5. […] Treatments were given in a total volume of 10 μL, administered directly onto (i.e., topically) the vitelline vein. Embryos were returned to the incubator immediately following dosing, and then observed at 1, 2, 4, and 6 h. Survival was monitored via the observation of a heartbeat. Venom pathology was captured using a Motic SMZ 171-TLED microscope system. In brief, at each observation time point (1, 2, 4, and 6 h post envenoming) images were captured using a Moticam X5 Wi-Fi camera. To track changes across the experimental time course, the imaging position was kept consistent at each time point for individual embryos.

[20] = system: SVMP activity of five viper venoms (E. romani, C. atrox, C. rhodostoma, B. jararaca, B. arietans); conditions: read-out: broad-spectrum inhibition of SVMP activity EC50s; range over the five venoms
Description: as §1, §2

[21] = in vivo; conditions: male, CD1, mouse, plasma, po, 20 mg/kg
Description: (§6) The in vivo PK study was performed by ChemPartner (Shanghai, China). […] Mice had access to food and water throughout the pre- and postdose sampling period. […] Approximately 110 μL whole blood/time point (sampling at 0.083, 0.25, 0.5, 1, 2, 4, 8, and 24 h) was collected via serial bleeding in K2EDTA tube via facial vein. The blood sample was kept on ice and centrifuged (2,000 × g, 4 °C, 5 min) within 15 min postsampling. The plasma drug concentrations were determined by LC-MS/MS (ESI, Triple Quad 5500 System) on positive ion mode and using dexamethasone as internal standard. Liquid chromatography (LC) was performed using a 2.5 μm Xbridge BEH-C18 column (2.1 mm × 50 mm) at 60 °C with a rate of 0.6 mL/min. The following mobile phases were used; A: Water (+0.025% Formic acid and 1.0 mM ammonium acetate), B: Methanol (+0.025% Formic acid and 1.0 mM ammonium acetate).

[22] = system: E. romani venom in human whole blood; conditions: venom 60 ng plus drug 5 μM
Description: We measured the coagulation profile of whole human blood using thromboelastography, and compared with venom stimulated, and venom and drug stimulated, clotting profiles. […] Blood samples were collected in ACD-A blood tubes. Using a ROTEM delta (Werfen) a final volume of 300 μL blood per reaction was pipetted into prewarmed cups (37 °C), with four channels per run. Whole blood was warmed for 5 min at 37 °C, during which time 12 μL of E. romani venom (5 ng/nL concentration, 60 ng dose), 15 μL of DMSO vehicle or test compounds (5 μM final concentration, 0.2% DMSO), and 20 μL of Startem reagent (CaCl2, Werfen) was prepared. The maximum incubation time of venom and inhibitors was 2 min, before 253 μL of whole blood were added and mixed before reading on the ROTEM delta. The commonly used parameters of clotting time and maximum clot firmness (MCF) were reported, from a minimum of three independent measurements per experimental group.

[23] = system: E. romani P–I, P–II and P–III SVMPs; conditions: gel; for protection against degradation of fibrinogen: P–I, P–II, P–III SVMPs, drug 10 μM (P–I, P–II), 400 nM (P–III)
Description: as §5
Degradation of human fibrinogen was measured in a similar manner. Human fibrinogen (Merck) was added at 5 μg/reaction and incubated with the different SVMP isoforms in the presence or absence of drugs. Drug concentrations used were 10 μM for P–I and P–II SVMP and 400 nM for P–III SVMP. The reactions consisted of 200 ng SVMP isoform and the appropriate concentration of drug, which were then incubated for 30 min at 37 °C in a water bath. Five micrograms of fibrinogen were then added and the samples incubated for another hour at 37 °C, before separation by SDS-PAGE as described above.

[24] = mouse
Description: as §6

[25] = system: mouse fibrinogen and prothrombin; conditions: in words
Description: Mouse plasma samples were diluted 1:50 (antifibrinogen blots) and 1:30 (antiprothrombin blots) and 5 μL was run on 4–20% SDS-PAGE gels (BioRad) at 180 V for 1 h. The separated proteins were then transferred onto nitrocellulose membranes using semidry transfer on a Trans-Blot Turbo (BioRad) using the following conditions: 1.3 A, 25 V, 7 min. Blots were then stained for 5 min with Revert 700 Total Protein Stain (LICORbio) following the manufacturer’s protocol and imaged on the 700 nm channel on an Odyssey Fc Imaging System to detect protein abundance and ensure equal loading. Membranes were then destained in 0.1 M NaOH, 30% methanol for no longer than 10 min, then blocked in 5% milk TBST for 1 h. The primary antibodies: antifibrinogen (ab34269, rabbit polyclonal, Abcam) and antiprothrombin (PA5-77976, rabbit polyclonal, Thermo Fisher) were diluted 1:1,500 and 1:1,000, respectively, in 5% milk TBST. The membranes were incubated with the appropriate primary antibody for 1.5 h at room temperature, followed by three 5 min washes in TBST. Blots were then incubated for 1 h at room temperature with an IRDye 800CW donkey anti-rabbit IgG secondary antibody (1:15000, LICORbio), followed by three 5 min washes in TBS. The blots were imaged on an Odyssey Fc Imaging System at both 700 and 800 nm.

## O=S(=O)(O)CC(S)CS (stereo not shown) [DMPS, 2,3-dimercapto-1-propanesulfonic acid]
[1]
  EC50: 1650 nM
[2]
  oral dosing murine survival at 8 h: 40%

## COCCN1CCN(S(=O)(=O)c2ccc(OC)cc2)[C@@H](C(=O)NO)C1 [compound 20, (R)-N-Hydroxy-4-(2-methoxyethyl)-1-((4-methoxyphenyl)sulfonyl)piperazine-2-carboxamide]
[3]
  EC50: 86.2 nM
[4]
  EC50: > 10000 nM
[5]
  microsomal CLint: < 3 µL/min/mg
[6]
  EC50: 61.9 nM
[7]
  EC50: 137 nM
[8]
  inhibition of procoagulant venom activity: inactive
[9]
  hepatocyte CLint: 57.1 µL/min/1e6 cells
[10]
  logD: 0.1
[11]
  solubility: > 1000 µM
[12]
  Human Protein binding (%free): 82 %free
[13]
  EC50: 11.1 nM
[14]
  EC50: 68.9 nM
[15]
  EC50: > 10 µM

## COc1ccc(S(=O)(=O)N2CCN(S(=O)(=O)C3CC3)C[C@@H]2C(=O)NO)cc1 [compound 23, (R)-4-(Cyclopropylsulfonyl)-N-hydroxy-1-((4-methoxyphenyl)sulfonyl)piperazine-2-carboxamide]
[3]
  EC50: 10.9 nM
[4]
  EC50: 13.4 nM
[5]
  microsomal CLint: 8.3 µL/min/mg
[6]; listed as 23 (DC-174)
  EC50: 4.7 nM
[16]; 90 μg venom i.p., single 20 mg/kg oral dose, p = 0.01, in words
  survival times vs venom-only: significantly prolonged survival times
[16]; two dose oral regimen 20 mg/kg, 8 h experiment
  mean survival time: 420 min
[16]; two dose oral regimen 20 mg/kg, one of five mice
  time at which the mouse succumbed: 180 min
[17]
  protection against prothrombin degradation: almost full protection
[18]; single 20 mg/kg oral dose, all mice
  TAT levels, mean: 18.6 ng/mL
[18]; single 20 mg/kg oral dose, mice that died during the experiment
  TAT levels, mean: 29.6 ng/mL
[18]; single 20 mg/kg oral dose, the two survivors
  TAT levels, mean: 2.1 ng/mL
[18]; two 20 mg/kg oral doses
  TAT levels, mean: 13.7 ng/mL
[19]; drug 1 μg/egg topical, 6 h
  embryo survival: complete survival
[7]
  EC50: 38.6 nM
[20]
  EC50: 4.7 to 38.6 nM
[21]
  AUC(0-inf): 450 ng·h/mL
  AUC(0-t): 444 ng·h/mL
  Cmax: 311 ng/mL
  MRT inf: 1.61 h
  MRT last: 1.49 h
  Tmax: 30 min
  concentration at 4 h: 26.1 ng/mL
  half-life: 84.6 min
[9]
  hepatocyte CLint: 13.3 µL/min/1e6 cells
[10]
  logD: 0.2
[22]; mean
  clotting time: 8.6 min
  maximum clot firmness (MCF): 60.3 [SD 0.6] mm
[11]
  solubility: > 1000 µM
[12]
  Human Protein binding (%free): 66 %free
[23]
  protection against degradation of fibrinogen: protected against the degradation of fibrinogen
[13]
  EC50: 3.9 nM
[24]; 20 mg/kg oral, 4 h after dosing
  drug level at 4 h as share of C max: 8.4%
[24]; oral dosing
  time for drug levels to reach their peak: 30 min
[14]
  EC50: 22.9 nM
[15]
  EC50: 0.135 µM
[25]; single 20 mg/kg oral dose, surviving mice
  plasma prothrombin and fibrinogen profiles: intact prothrombin and fibrinogen profiles
[25]; two 20 mg/kg oral doses
  plasma fibrinogen: fibrinogen was detectable in all multiply dosed animals
  plasma prothrombin: Prothrombin was detectable in three of the four surviving mice

## CC1(C)SCCN(S(=O)(=O)c2ccc(Oc3ccncc3)cc2)[C@H]1C(=O)NO [Prinomastat, prinomastat, reference compound]
[4]
  EC50: 972 nM
[17]
  protection against prothrombin degradation: almost full protection
[8]
  inhibition of procoagulant venom activity: demonstrated inhibition of procoagulant activity
[23]
  protection against degradation of fibrinogen: protected against the degradation of fibrinogen
[15]
  EC50: 0.558 µM

## COCCN1CCN(S(=O)(=O)c2ccc(-c3ccc(Cl)cc3)cc2)[C@@H](C(=O)NO)C1 [compound 29, (R)-1-((4′-Chloro-[1,1′-biphenyl]-4-yl)sulfonyl)-N-hydroxy-4-(2-methoxyethyl)piperazine-2-carboxamide]
[3]
  EC50: 38.9 nM
[4]
  EC50: > 10000 nM
[5]
  microsomal CLint: 5.1 µL/min/mg
[6]
  EC50: 16.1 nM
[7]
  EC50: 220 nM
[8]
  inhibition of procoagulant venom activity: inactive
[9]
  hepatocyte CLint: 21.1 µL/min/1e6 cells
[10]
  logD: 2.5
[11]
  solubility: 310 µM (≈ 141 µg/mL)
[12]
  Human Protein binding (%free): 5.2 %free
[13]
  EC50: 3.5 nM
[14]
  EC50: 52.7 nM
[15]
  EC50: > 10 µM

## COc1ccc(S(=O)(=O)N2CCN(S(=O)(=O)c3c(C)noc3C)C[C@@H]2C(=O)NO)cc1 [compound 22, (R)-4-((3,5-Dimethylisoxazol-4-yl)sulfonyl)-N-hydroxy-1-((4-methoxyphenyl)sulfonyl)piperazine-2-carboxamide]
[3]
  EC50: 17.8 nM
[4]
  EC50: 1090 nM
[5]
  microsomal CLint: 17.5 µL/min/mg
[6]
  EC50: 10.7 nM
[7]
  EC50: 53.3 nM
[9]
  hepatocyte CLint: 44 µL/min/1e6 cells
[10]
  logD: 0.7
[11]
  solubility: > 1000 µM
[12]
  Human Protein binding (%free): 51 %free
[13]
  EC50: 9.8 nM
[14]
  EC50: 35 nM
[15]
  EC50: 4.85 µM

## COCCOC(=O)N1CCN(S(=O)(=O)c2cc(F)c(Oc3ccc(Cl)cc3)c(F)c2)[C@@H](C(=O)NO)C1 [XL-784, reference compound]
[3]
  EC50: 64.4 nM
[4]
  EC50: > 10000 nM
[5]
  microsomal CLint: 100 µL/min/mg
[6]
  EC50: 9.7 nM
[17]
  protection against prothrombin degradation: unable to protect against prothrombin degradation
[19]; drug 1 μg/egg, 1 h postvenom images
  venom-induced hemorrhage in embryos: no evidence of hemorrhage
[7]
  EC50: 93.4 nM
[8]
  inhibition of procoagulant venom activity: inactive
[9]
  hepatocyte CLint: 67.3 µL/min/1e6 cells
[10]
  logD: 3.2
[22]
  reduction of venom-induced MCF: 28.9%
[22]; in words
  effect on clotting time: no effect on clotting time
[11]
  solubility: 316 µM (≈ 174 µg/mL)
[12]
  Human Protein binding (%free): 0.3 %free
[23]
  protection against degradation of fibrinogen: protected against the degradation of fibrinogen
[23]; P–II SVMP, drug 10 μM
  protection against fibrinogen degradation by P–II SVMP: inferior against P–II SVMP activity
[13]
  EC50: 12.9 nM
[14]
  EC50: 50.6 nM
[15]
  EC50: > 10 µM

## COCCN1CCN(S(=O)(=O)c2ccc(-c3ccc(F)cc3)cc2)[C@@H](C(=O)NO)C1 [compound 30, (R)-1-((4′-Fluoro-[1,1′-biphenyl]-4-yl)sulfonyl)-N-hydroxy-4-(2-methoxyethyl)piperazine-2-carboxamide]
[3]
  EC50: 27.1 nM
[4]
  EC50: > 10000 nM
[5]
  microsomal CLint: 7.1 µL/min/mg
[6]
  EC50: 18.5 nM
[7]
  EC50: 125 nM
[8]
  inhibition of procoagulant venom activity: inactive
[9]
  hepatocyte CLint: > 300 µL/min/1e6 cells
[10]
  logD: 1.9
[11]
  solubility: 468 µM (≈ 205 µg/mL)
[12]
  Human Protein binding (%free): 14.0 %free
[13]
  EC50: 1.8 nM
[14]
  EC50: 18.6 nM
[15]
  EC50: > 10 µM

— PMC13126677 (Journal of Medicinal Chemistry, 2026)
